Results published in ChEMBL document CHEMBL4765482, “Novel Sigma 1 Receptor Antagonists as Potential Therapeutics for Pain Management” (J Med Chem, 2021).
Each block holds one compound with its values, some of them ahead of it.

Experiments:
[1] = biological target: T1, Sigma non-opioid intracellular receptor 1 (Homo sapiens, UniProt Q99720); experiment: Displacement of [3H]-pentazocine from sigma-1 receptor in human Jurkat cell membrane incubated for 2 hr by liquid scintillation counting method; format: cell membranes
T1 sequence (Q99720 whole entry): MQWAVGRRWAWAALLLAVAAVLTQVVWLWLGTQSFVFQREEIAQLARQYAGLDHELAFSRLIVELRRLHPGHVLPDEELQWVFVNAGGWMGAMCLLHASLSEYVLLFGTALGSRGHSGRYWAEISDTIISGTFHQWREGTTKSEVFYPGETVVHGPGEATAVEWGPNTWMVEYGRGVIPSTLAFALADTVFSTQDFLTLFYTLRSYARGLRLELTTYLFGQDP

[2] = biological target: T2, Sigma intracellular receptor 2 (Homo sapiens, UniProt Q5BJF2); experiment: Displacement of [3H]-DTG from sigma-2 receptor in human Jurkat cell membrane incubated for 1 hr by liquid scintillation counting method; format: cell membranes
T2 sequence (Q5BJF2 whole entry): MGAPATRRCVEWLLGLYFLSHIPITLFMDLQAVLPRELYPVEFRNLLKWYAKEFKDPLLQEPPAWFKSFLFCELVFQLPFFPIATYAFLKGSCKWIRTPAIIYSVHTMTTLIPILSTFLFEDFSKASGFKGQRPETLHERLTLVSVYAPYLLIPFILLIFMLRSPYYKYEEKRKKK

[3] = biological target: T1, Sigma non-opioid intracellular receptor 1; experiment: Displacement of [3H]-pentazocine from sigma-1 receptor in human Jurkat cell membrane at 100 nM incubated for 2 hr by liquid scintillation counting method relative to control; format: cell membranes
[4] = Displacement of [3H]-DTG from sigma-2 receptor in guinea pig brain membrane incubated for 1 hr by liquid scintillation counting method; format: cell membranes, Cavia porcellus
[5] = biological target: T2, Sigma intracellular receptor 2; experiment: Displacement of [3H]-DTG from sigma-2 receptor in human Jurkat cell membrane at 1000 nM incubated for 1 hr by liquid scintillation counting method relative to control; format: cell membranes; settings: filed as antagonist
[6] = Metabolic stability in rat liver microsomes assessed as half-life at 10 uM incubated for 1 hr in presence of NADPH by LC-MS/MS analysis; format: ADME, Microsome
[7] = Intrinsic clearance in rat liver microsomes at 10 uM incubated for 1 hr in presence of NADPH by LC-MS/MS analysis; format: ADME, Microsome; settings: read-out: CLH
[8] = Metabolic stability in human liver microsomes assessed as half-life at 10 uM incubated for 1 hr in presence of NADPH by LC-MS/MS analysis; format: ADME, Microsome
[9] = Intrinsic clearance in human liver microsomes at 10 uM incubated for 1 hr in presence of NADPH by LC-MS/MS analysis; format: ADME, Microsome; settings: read-out: CLH

Ki [1]: 26 nM
Structure (SMILES): Cn1nc(CN2CCCC2)nc1-c1ccc2c(c1)CCCC2

Ki [2]: > 1000 nM
Activity [3]: 3%
Structure (SMILES): Cc1ccc(-c2nc(CN3CCCC3)nn2C)cc1

Ki [2]: > 1000 nM
Ki [1]: 64 nM
Structure (SMILES): Cn1nc(CN2CCCC2)nc1-c1ccc2ccsc2c1

Ki [4]: 57 nM
Structure (SMILES): Cn1nc(CN2CCC(Cc3ccccc3)CC2)nc1-c1ccc(C(C)(C)C)cc1

Activity [5]: 65%
Activity [3]: 39%
Structure (SMILES): Cn1nc(CN2CCCC2)nc1-c1ccc(Oc2ccccc2)cc1

Ki [4]: 441 nM
Structure (SMILES): Cn1nc(CN2CCCCC2)nc1-c1ccc(C(C)(C)C)cc1

Ki [2]: 1000 nM
Structure (SMILES): Cn1nc(CN2CCCC2)nc1-c1ccc2cc(Cl)sc2c1

Ki [2]: > 1000 nM
Activity [3]: 28%
Structure (SMILES): Cc1ccc(-c2nc(CN3CCCC3)nn2C)cc1C

Activity [5]: 79%
Activity ([3]; filed as antagonist): 43%
Structure (SMILES): Cn1nc(CN2CCCC2)nc1-c1ccc(-c2ccc(Cl)c(Cl)c2)c(Cl)c1

Ki [2]: 1000 nM
Activity [3]: 37%
Structure (SMILES): Cn1nc(CN2CCCC2)nc1-c1ccc2c(c1)CCC2

Ki [2]: 1000 nM
Ki [1]: 29 nM
Structure (SMILES): Cn1nc(CN2CCCC2)nc1-c1cccc(C(C)(C)C)c1

Ki [2]: 1000 nM
Ki [1]: 96 nM
Structure (SMILES): CC(C)c1ccc(-c2nc(CN3CCCC3)nn2C)cc1

half-life at 10 µM [6]: 3.5 min
Ki [4]: 324 nM
microsomal CLint at 10 µM [7]: 196 µL/min/mg
half-life at 10 µM [8]: 61.3 min
microsomal CLint at 10 µM [9]: 11.3 µL/min/mg
Structure (SMILES): CN(Cc1nc(-c2ccc(C(C)(C)C)cc2)n(C)n1)CC1CC1

Ki [4]: 39 nM
Structure (SMILES): Cn1nc(CN2CCN(Cc3ccccc3)CC2)nc1-c1ccc(C(C)(C)C)cc1

half-life at 10 µM [6]: 5.1 min
microsomal CLint at 10 µM [7]: 135 µL/min/mg
half-life at 10 µM [8]: 84.7 min
microsomal CLint at 10 µM [9]: 8.2 µL/min/mg
Structure (SMILES): Cn1nc(CN2CCCC2)nc1-c1ccc(Cl)c(Cl)c1

half-life at 10 µM [6]: 2.6 min
microsomal CLint at 10 µM [7]: 263 µL/min/mg
half-life at 10 µM [8]: 74.9 min
microsomal CLint at 10 µM [9]: 9.3 µL/min/mg
Structure (SMILES): Cc1cc(-c2nc(CN3CCCC3)nn2C)ccc1C(F)(F)F

Ki [1]: 2.2 nM
Structure (SMILES): CC(C)n1nc(CN2CCCC2)nc1-c1ccc(C(C)(C)C)cc1

microsomal CLint at 10 µM [7]: 196 µL/min/mg
microsomal CLint at 10 µM [9]: 189 µL/min/mg
Structure (SMILES): O=C(O)Cc1ccccc1Nc1c(Cl)cccc1Cl [DICLOFENAC]
